Each block holds one compound with its values, some of them ahead of it.
How the values were obtained:
[1] = biological target: T1, LovB (Aspergillus terreus, UniProt Q9Y8A5); assay: cryo-EM structure; format: binding; settings: KR domain NADPH pocket; sample with 2 mM each Mal-CoA, NADPH and SAM; pH 8.0
T1 construct: dimer; ACP and CON domains not resolved; DSS-crosslinked with LovC for cryo-EM

[2] = biological target: T2, LovC (Aspergillus terreus, UniProt Q9Y7D0); assay: NADPH fluorescence (Ex […] nm, Em […] nm); format: biochemical; settings: 100 μM NADPH, 200 μM crotonoyl-CoA, 100 mM KH2PO4 pH 7.0, 2% DMSO, 25 °C
T2 construct: full-length, His-tagged (pET28_LovCcH), expressed in E. coli, without LovB
T2 sequence (Q9Y7D0 1-363): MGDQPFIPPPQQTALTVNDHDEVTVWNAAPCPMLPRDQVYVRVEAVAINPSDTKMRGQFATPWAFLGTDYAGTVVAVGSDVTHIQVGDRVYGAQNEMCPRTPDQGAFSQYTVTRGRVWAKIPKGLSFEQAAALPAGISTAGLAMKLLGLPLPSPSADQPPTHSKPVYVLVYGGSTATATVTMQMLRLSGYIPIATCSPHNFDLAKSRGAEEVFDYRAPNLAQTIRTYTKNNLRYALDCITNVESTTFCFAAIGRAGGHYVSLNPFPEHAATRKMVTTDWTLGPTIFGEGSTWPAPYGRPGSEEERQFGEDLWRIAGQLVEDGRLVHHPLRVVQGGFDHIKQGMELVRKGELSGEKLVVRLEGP

[3] = biological target: lovastatin nonaketide synthase (LovB), full-length, His-tagged (Aspergillus terreus) (UniProt Q9Y8A5); assay: cryo-EM structure; LovB mixed with LovC and 2 mM each of Mal-CoA, NADPH and SAM, cross-linked with DSS, SEC on Superose 6 Increase (50 mM Tricine pH 8.0, 4 mM SAM), cofactors re-added, 0.1% Tween 20; maps at 2.91 Å (LovB) and 3.60 Å (LovBC with one LovC)

T1 sequence (Q9Y8A5 whole entry, the tested form may be a part): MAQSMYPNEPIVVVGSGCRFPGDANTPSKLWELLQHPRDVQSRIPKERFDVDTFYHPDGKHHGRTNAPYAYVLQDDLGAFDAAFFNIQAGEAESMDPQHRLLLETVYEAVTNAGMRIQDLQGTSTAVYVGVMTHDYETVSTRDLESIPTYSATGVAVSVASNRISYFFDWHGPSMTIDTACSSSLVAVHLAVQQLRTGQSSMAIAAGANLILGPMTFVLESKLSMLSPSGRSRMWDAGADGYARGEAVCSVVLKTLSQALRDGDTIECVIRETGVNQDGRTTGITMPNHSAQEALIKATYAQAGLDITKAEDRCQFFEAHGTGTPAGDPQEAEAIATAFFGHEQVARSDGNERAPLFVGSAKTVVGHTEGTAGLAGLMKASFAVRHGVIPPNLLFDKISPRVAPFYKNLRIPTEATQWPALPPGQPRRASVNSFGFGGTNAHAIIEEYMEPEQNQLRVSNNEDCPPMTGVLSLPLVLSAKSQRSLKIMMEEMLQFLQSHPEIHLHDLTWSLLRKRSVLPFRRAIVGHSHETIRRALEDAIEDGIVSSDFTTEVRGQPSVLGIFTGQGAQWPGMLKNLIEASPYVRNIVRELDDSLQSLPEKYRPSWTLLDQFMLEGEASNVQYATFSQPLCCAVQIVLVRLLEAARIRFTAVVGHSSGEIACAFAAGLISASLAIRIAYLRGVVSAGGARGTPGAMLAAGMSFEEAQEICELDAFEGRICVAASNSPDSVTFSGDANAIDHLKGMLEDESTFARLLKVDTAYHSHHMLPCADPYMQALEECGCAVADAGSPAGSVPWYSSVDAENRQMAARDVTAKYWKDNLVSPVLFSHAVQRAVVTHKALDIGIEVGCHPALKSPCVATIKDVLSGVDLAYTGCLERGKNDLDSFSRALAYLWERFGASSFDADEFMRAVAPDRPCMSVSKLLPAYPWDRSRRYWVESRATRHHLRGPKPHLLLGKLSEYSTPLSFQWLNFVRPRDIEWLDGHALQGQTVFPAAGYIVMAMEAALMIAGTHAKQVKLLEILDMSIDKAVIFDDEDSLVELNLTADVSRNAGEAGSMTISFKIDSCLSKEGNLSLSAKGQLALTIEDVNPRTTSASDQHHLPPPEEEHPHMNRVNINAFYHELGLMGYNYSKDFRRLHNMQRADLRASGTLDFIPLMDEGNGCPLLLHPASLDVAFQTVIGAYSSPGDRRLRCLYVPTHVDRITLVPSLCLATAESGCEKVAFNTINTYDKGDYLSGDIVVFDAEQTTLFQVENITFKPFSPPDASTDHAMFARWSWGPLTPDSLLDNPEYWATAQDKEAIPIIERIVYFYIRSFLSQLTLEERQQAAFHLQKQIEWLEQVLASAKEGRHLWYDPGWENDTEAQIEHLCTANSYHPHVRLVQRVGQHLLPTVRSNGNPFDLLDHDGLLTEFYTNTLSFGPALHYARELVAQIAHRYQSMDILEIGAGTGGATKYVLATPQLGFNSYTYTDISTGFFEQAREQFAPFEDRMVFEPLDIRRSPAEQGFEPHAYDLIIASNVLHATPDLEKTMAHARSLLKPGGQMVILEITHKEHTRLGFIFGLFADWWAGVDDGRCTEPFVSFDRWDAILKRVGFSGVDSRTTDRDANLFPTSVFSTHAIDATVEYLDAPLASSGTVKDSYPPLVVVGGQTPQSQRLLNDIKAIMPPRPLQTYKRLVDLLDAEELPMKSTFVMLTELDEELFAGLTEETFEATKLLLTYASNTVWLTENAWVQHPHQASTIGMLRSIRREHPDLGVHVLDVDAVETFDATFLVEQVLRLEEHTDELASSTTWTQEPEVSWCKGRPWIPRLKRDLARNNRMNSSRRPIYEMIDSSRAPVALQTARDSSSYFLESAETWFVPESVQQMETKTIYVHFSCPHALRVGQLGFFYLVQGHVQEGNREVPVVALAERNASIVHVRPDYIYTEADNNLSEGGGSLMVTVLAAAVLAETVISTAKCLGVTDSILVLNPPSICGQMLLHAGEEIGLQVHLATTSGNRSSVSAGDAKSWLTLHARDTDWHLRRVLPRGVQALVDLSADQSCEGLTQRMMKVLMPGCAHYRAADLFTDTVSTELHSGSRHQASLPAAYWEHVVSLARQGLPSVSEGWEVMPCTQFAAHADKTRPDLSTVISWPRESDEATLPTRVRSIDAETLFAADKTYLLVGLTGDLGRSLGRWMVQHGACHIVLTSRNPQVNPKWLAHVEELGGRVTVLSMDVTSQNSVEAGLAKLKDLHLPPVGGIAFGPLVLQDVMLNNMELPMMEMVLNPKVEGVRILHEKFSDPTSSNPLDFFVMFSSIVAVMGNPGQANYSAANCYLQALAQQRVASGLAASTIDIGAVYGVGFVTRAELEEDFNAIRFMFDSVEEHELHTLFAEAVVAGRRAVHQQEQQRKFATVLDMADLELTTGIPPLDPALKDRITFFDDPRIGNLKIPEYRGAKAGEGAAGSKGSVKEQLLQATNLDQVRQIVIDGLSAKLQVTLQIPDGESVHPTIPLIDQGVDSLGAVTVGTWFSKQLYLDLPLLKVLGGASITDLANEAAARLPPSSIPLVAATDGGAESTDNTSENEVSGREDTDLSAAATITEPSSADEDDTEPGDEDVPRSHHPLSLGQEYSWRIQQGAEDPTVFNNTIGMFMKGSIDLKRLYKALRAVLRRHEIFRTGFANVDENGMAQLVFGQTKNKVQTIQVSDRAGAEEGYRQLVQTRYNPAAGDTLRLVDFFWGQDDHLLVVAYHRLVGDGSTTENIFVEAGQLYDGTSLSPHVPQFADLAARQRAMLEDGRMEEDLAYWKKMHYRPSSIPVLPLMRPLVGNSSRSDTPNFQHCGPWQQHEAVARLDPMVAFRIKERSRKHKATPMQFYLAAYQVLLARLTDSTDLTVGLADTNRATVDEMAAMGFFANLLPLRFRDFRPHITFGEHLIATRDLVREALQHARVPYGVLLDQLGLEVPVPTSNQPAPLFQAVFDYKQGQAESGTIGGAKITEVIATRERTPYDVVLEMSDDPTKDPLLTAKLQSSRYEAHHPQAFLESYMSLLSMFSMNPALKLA

Compound: NC(=O)c1ccc[n+]([C@@H]2O[C@H](COP(=O)(O)OP(=O)(O)OC[C@H]3O[C@@H](n4cnc5c(N)ncnc54)[C@H](OP(=O)(O)O)[C@@H]3O)[C@@H](O)[C@H]2O)c1 [NADP+]
- cryo-EM structure [1]: The NADPH binding pocket with bound NADP^+ nicotinamide ring can be clearly identified

Compound: NC(=O)C1=CN([C@@H]2O[C@H](COP(=O)(O)OP(=O)(O)OC[C@H]3O[C@@H](n4cnc5c(N)ncnc54)[C@H](OP(=O)(O)O)[C@@H]3O)[C@@H](O)[C@H]2O)C=CC1 [NADPH]
- NADPH fluorescence (Ex 340 nm, Em 455 nm) [2]: NADPH was oxidized in the presence of substrate over time

- stoichiometry N [3]: 2
Compound: lovastatin nonaketide synthase (LovB), full-length, His-tagged, Q9Y8A5 1-3038
